Assay results published in US20030119733A1, “Compositions and methods for inhibiting hepatocyte invasion by malarial sporozoites” (New York University, priority 1992, published 2003).

Tests used:
[1] = test system: binding of CSFZ(Cys) to HepG2 cells; assay: Inhibition of CS binding to HepG2 cells by glycosaminoglycans; design: species or system human; details: preincubated with 5 μg/ml CSFZ(Cys); FIG. 9
Protocol: 10^5 HepG2 cells were deposited in 96-well Removawell tissue culture plates and allowed to grow overnight in MEM (Gibco) containing 10% FCS, 1 mM L-glutamine (Gibco), 3 mg/ml glucose (Sigma) and 1× non-essential amino acids (Gibco). The HepG2 cells were fixed with 4% paraformaldehyde in TBS (50 mM Tris-HCl, pH 7.5, 137 mM NaCl, 2 mM KCl), were washed 3 times with TBS, and were stored at 4° C. in BSA/TBS until use. CSFZ(Cys) at 5 μg/ml was incubated with increasing amounts of the presumed inhibitors at 37° C. for 15 min. Fifty μl of these mixtures were added to the cells, incubated for 1 hr at 37° C., washed 3× with TBS/0.05% Tween and then sequentially incubated with 50 μl of mAb 2A10 at a concentration of 10 μg/ml in TBS/BSA buffer for 30 min at 37° C., and 1:5000 dilution of goat anti-mouse IgG conjugated to alkaline phosphatase (Boehringer) for 30 minutes. […] After 15 minutes, the fluorescence was measured in a Fluoroskan II plate reader (ICN).
Proteoglycans were preincubated with 5 μg/ml of CSFZ(Cys) and then were added to paraformaldehyde-fixed HepG2 cells. […] Each point represents the mean of triplicates. Percent inhibition was calculated by comparison to CSFZ(Cys) preincubated in medium alone.

[2] = test system: heparan sulfate proteoglycans (HSPG); assay: CS/proteoglycan co-immunoprecipitation; format: binding, human; details: for effect on co-immunoprecipitation of the CS receptor by CSFZ(Cys): 100 μg/ml added to 35SO4-labeled HepG2 cell extracts; for effect on co-immunoprecipitation of purified proteoglycans by CSFZ(Cys): purified trypsin-released HepG2 proteoglycan, FIG. 17
Protocol: All extracts and supernatants were first precleared with normal rabbit serum and Staph A cells. Then 32 μg/ml of CSFZ(Cys) or 64 μg/ml of CS27IVC, Falc-2 or Falc-1 were added for 30 minutes, followed by 10.8 μg/ml mAb 2A10 for 30 minutes, and 1% Staph A cells (final concentrations). The suspensions were shaken for 1 to 5 hours at 4° C. The Staph A cells were washed 3 times with the lysis buffer A, 2 times with lysis buffer B (10 mM Tris-HCl, pH 7.2, containing 100 mM NaCl and 0.5% NP40), 1 time with 50 mM Tris-HCl, ph 7.2, and were processed in this buffer for electrophoresis under reducing and non-reducing conditions.
Extracts of cells metabolically labeled with ^35SO4 were incubated for 30 minutes at 4° C. with 32 μg/ml of recombinant CSFZ(Cys) or 64 μg/ml Falc-1, and were immunoprecipitated with mAb 2A10 and Staph A cells. […] Immunoprecipitation with Falc-1 was negative. The SDS-PAGE patterns of the total lysate of HepG2 cells, and of the molecules co-immunoprecipitated with CSFZ(Cys) resembled the corresponding liver SDS-PAGE patterns. In kidney lysates, CSFZ(Cys) selectively immunoprecipitated a band of slightly lower molecular weight than the total kidney sulfated molecules.
Sub-confluent HepG2 cells were incubated with various concentrations of trypsin for 5 minutes at 4° C. […] Independently of the trypsin concentration, about 80% of the released HSPG was co-immunoprecipitated by 32 μg/ml CSFZ(Cys) and 10.8 μg/ml mAb 2A10. Under the same conditions, Falc-1 was negative.
^35SO4-labeled trypsin-released proteoglycan (total supernatant) was precipitated by CSFZ(Cys) (32 μg/ml), Falc-2 (64 μg/ml), CS27IVC (64 μg/ml) and Falc-1 (64 μg/ml). The labeled molecules were incubated with CSFZ(Cys), CS27IVC, and Falc-2 at equivalent concentrations of Region II+, and co-immunoprecipitated with the mAb 2A10. CSFZ(Cys), lacking most of the repeat region, precipitated up to 86% of the total sulfate-labeled proteoglycans (see FIG. 14), while CS27IVC and Falc-2 precipitated only 18% and 6% of the counts, respectively. Falc-1, which lacks Region II+, was negative.
Subconfluent sulfate-labeled HepG2 cells were incubated with 20 μg/ml trypsin for 5 minutes at 4° C., and the supernatants were loaded onto an anion exchange chromatography Pharmacia mono-Q column. These were eluted with a 0 to 2 M NaCl gradient in the presence of 7 M urea. […] Protein was not detectable in the labeled peaks. One ml fractions were collected and counted.

P. berghei sporozoites = assay: Infection assay of HepG2 cells with polymers; format: cell-based; details: for effect on sporozoite invasion: present during invasion, 5-50 μg/ml; for invasion of hepatocytes by sporozoites in vitro: no conditions given
Protocol: Infection assay: Semiconfluent monolayers of HepG2 cells were grown in 10% FCS/MEM on 8 chamber slides (#4808 Lab-tek -Naperville, Ill.) for 24 hours prior to each experiment. Sporozoites were pre-incubated in media alone or with the various polymers for 15 minutes at 4° C. 5×10^4 sporozoites, in a volume of 10 μl, were added per chamber. After 4 hours of incubation at 37° C., the medium containing the sporozoites was gently aspirated, and 0.5 ml MEM/10% FCS was added. Fresh medium was added at 18 hours and 28 hours, and then cells were fixed with methanol containing 0.3% H2O2 at 48 hours. After fixation, the wells were blocked with 10% FCS/PBS and were incubated with 10 μg/ml of mAb 2E6. Binding of the mAb was detected with a polyclonal goat anti-mouse Ig conjugated to horseradish peroxidase. […] The parasites in each well are counted under a 40× light microscope objective.
The cells were fixed and stained with mAb 2E6, followed by goat-anti-mouse linked to horseradish peroxidase. Numbers represent schizonts counted/20 fields under 40× magnification in a light microscope.

[3] = test system: Vivax-2 binding to cholesterol-sulfate; assay: Inhibition of binding of Vivax-2 to cholesterol-sulfate; design: species or system P. vivax
Protocol: (§1) Solid phase binding assays: Thirty μl of lipids or steroids dissolved in methanol (20-250 μg/ml) were dried into wells of microassay plates (Cat.# 3911—Falcon—Oxnard, Calif.). The plates were then blocked with 1% BSA/PBS pH 7.4 (BSA/PBS) for 30 minutes. Wells were incubated with recombinant protein (or with parasite extract) in PBS/BSA for 1 hour, washed 3 times with BSA/PBS, incubated for 1 hour with monoclonal antibodies 2F2 or 2A10 in BSA/PBS, washed 3 times, and then incubated with (10^5 cpm/well) ^125I protein A (Amersham Corp., Arlington Hts., Ill.). In the case of the P. berghei CS protein, wells were incubated with ^125I labelled mAb 3D11. Wells were washed again and the bound radioactive protein was counted in an LKB gamma-counter (model #1260, Pharmacia, Inc., Gaithersburg, Md.). For inhibition assays, the recombinant proteins were mixed with dilutions of the various polymers in BSA/PBS, the mixture was loaded into the wells of the microtiter plates, and the binding assay performed as above. See also, Roberts, et al. J. Biol. Chem. 260:9405-9411, 1985.

[4] = test system: Vivax-2 binding to sulfatide; assay: Inhibition of binding of Vivax-2 to sulfatide; design: species or system P. vivax
Protocol: as §1

chondroitin sulfate
inhibition of CS binding to HepG2 cells [1]: not
effect on co-immunoprecipitation of the CS receptor by CSFZ(Cys) [2]: no effect
effect on co-immunoprecipitation of purified proteoglycans by CSFZ(Cys) [2]: not

dextran
effect on sporozoite invasion (P. berghei sporozoites): no effect
% INHIBITION ([3]; inhibitor 10 mg/ml): 0%
% INHIBITION ([4]; inhibitor 1 mg/ml): 0%
inhibition of CS binding to HepG2 cells [1]: not

fucoidan
invasion of hepatocytes by sporozoites in vitro (P. berghei sporozoites): inhibited
inhibition of CS binding to HepG2 cells [1]: inhibited

heparan-sulfate
effect on sporozoite invasion (P. berghei sporozoites): no effect
% INHIBITION ([3]; inhibitor 10 mg/ml): 0%
effect on binding to sulfatide ([4]; 1 mg/ml): no effect
% INHIBITION ([4]; inhibitor 1 mg/ml): 0%
inhibition of CS binding to HepG2 cells [1]: inhibited

heparin
invasion of hepatocytes by sporozoites in vitro (P. berghei sporozoites): inhibited
% INHIBITION ([3]; inhibitor 1 mg/ml): 0%
% INHIBITION ([3]; inhibitor 10 mg/ml): 31.2%
% INHIBITION ([4]; inhibitor 100 μg/ml): 0%
inhibition of CS binding to HepG2 cells [1]: inhibited
effect on co-immunoprecipitation of the CS receptor by CSFZ(Cys) [2]: prevented
effect on co-immunoprecipitation of purified proteoglycans by CSFZ(Cys) [2]: inhibited co-immunoprecipitation
